# Results: patent publication US8722676B2, “Bicyclic piperazine compounds” (Genentech, Inc., priority 2011, dated 2014)
# System: production of CD69 by B lymphocytes in human whole blood activated with goat F(ab')2 anti-human IgM
# Test: CD69 Whole Blood Assay (CD69 Hu Blood FACS)
# Type: cell-based
# Details: anti-IgM stimulated, 20 hour incubation, CD69+ of CD20+ cells, Table 2
# Excerpt: A CD69 Whole Blood Assay can be conducted on Formula I compounds to determine the ability of compounds to inhibit the production of CD69 by B lymphocytes in human whole blood activated by crosslinking surface IgM with goat F(ab′)2 anti-human IgM (Example 907). CD69 is a type II C-type lectin involved in lymphocyte migration and cytokine secretion. CD69 expression represents one of the earliest available indicators of leukocyte activation and its rapid induction occurs through transcriptional activation (Vazquez et al (2009) Jour. of Immunology Published Oct. 19, 2009, doi:10.4049/jimmunol.0900839). Concentration-dependent inhibition of antigen receptor stimulation by selective Btk inhibitors induces cell surface expression of the lymphocyte activation marker CD69 (Honigberg et al (2010) Proc. Natl. Acad. Sci. 107(29):13075-13080). Thus, CD69 inhibition by selective Btk inhibitors may be correlated with therapeutic efficacy of certain B-cell disorders.
# Human blood is obtained from healthy volunteers, with the following restrictions: 1 week drug-free, non-smokers. Blood (approximately 20 mls to test 8 compounds) is collected by venipuncture into Vacutainer® (Becton, Dickinson and Co.) tubes with sodium heparin.
# Solutions of Formula I compounds at 10 mM in DMSO are diluted 1:10 in 100% DMSO, then are diluted by three-fold serial dilutions in 100% DMSO for a ten point dose-response curve. The compounds are further diluted 1:10 in PBS and then an aliquot of 5.5 μl of each compound is added in duplicate to a 2 ml 96-well plate; 5.5 μl of 10% DMSO in PBS is added as control and no-stimulus wells. Human whole blood—HWB (100 μl) is added to each well. After mixing the plates are incubated at 37° C., 5% CO2, 100% humidity for 30 minutes. Goat F(ab′)2 anti-human IgM (10 μl of a 500 μg/ml solution, 50 μg/ml final) is added to each well (except the no-stimulus wells) with mixing and the plates are incubated for an additional 20 hours. At the end of the 20 hour incubation, samples are incubated with fluorescent labeled antibodies for 30 minutes, at 37° C., 5% CO2, 100% humidity. Include induced control, unstained and single stains for compensation adjustments and initial voltage settings. Samples are then lysed with PharM Lyse™ (BD Biosciences Pharmingen) according to the manufacturer's instructions. Samples are then transferred to a 96 well plate suitable to be run on the BD Biosciences HTS 96 well system on the LSRII machine. Data acquired and Mean Fluorescence Intensity values were obtained using BD Biosciences DIVA Software. Results are initially analyzed by FACS analysis software (Flow Jo).
row,Structure (SMILES),CD69 Hu Blood FACS IC70 [nM]
1,"O=C1c2cc3c(n2CCN1c1nccc(-c2cc(Nc4ccc(N5CCN(C6COC6)CC5)cn4)c4nccn4c2)c1CO)CCCC3 [Compound 121, 2-[3-(hydroxymethyl)-4-[8-[[5-[4-(oxetan-3-yl)piperazin-1-yl]-2-pyridyl]amino]imidazo[1,2-a]pyridin-6-yl]-2-pyridyl]-3,4,6,7,8,9-hexahydropyrazino[1,2-a]indol-1-one]",279
2,"O=C1c2cc3c(n2CCN1c1nccc(-c2cc(Nc4ccc(N5CCN(C6COC6)CC5)cn4)c4ncnn4c2)c1CO)CCCC3 [Compound 122, 2-[3-(hydroxymethyl)-4-[8-[[5-[4-(oxetan-3-yl)piperazin-1-yl]-2-pyridyl]amino]-[1,2,4]triazolo[1,5-a]pyridin-6-yl]-2-pyridyl]-3,4,6,7,8,9-hexahydropyrazino[1,2-a]indol-1-one]",208
3,"CC1(C)Cc2cc3n(c2C1)CCN(c1cc(F)cc(-c2nc(Nc4ccc(N5CCN(C6COC6)CC5)cc4)c4nc[nH]c4n2)c1CO)C3=O [Compound 123, 3-[5-fluoro-2-(hydroxymethyl)-3-[6-[4-[4-(oxetan-3-yl)piperazin-1-yl]anilino]-9H-purin-2-yl]phenyl]-7,7-dimethyl-1,2,6,8-tetrahydrocyclopenta[3,4]pyrrolo[3,5-b]pyrazin-4-one]",256
4,"CN1CCn2nc(Nc3cc(-c4ccnc(N5CCn6c(cc7c6CCCC7)C5=O)c4CO)nn4ccnc34)cc2C1 [Compound 124, 2-[3-(hydroxymethyl)-4-[8-[(5-methyl-6,7-dihydro-4H-pyrazolo[1,5-a]pyrazin-2-yl)amino]imidazo[1,2-b]pyridazin-6-yl]-2-pyridyl]-3,4,6,7,8,9-hexahydropyrazino[1,2-a]indol-1-one]",333
